Results as given in ChEMBL document CHEMBL3098114, “Combining the tail and the ring approaches for obtaining potent and isoform-selective carbonic anhydrase inhibitors: solution and X-ray crystallographic studies” (Bioorg Med Chem, 2014).

Tests used:
Carbonic anhydrase 7 = Carbonic anhydrase 7 (Homo sapiens, UniProt P43166); experiment: Inhibition of human CA7 preincubated for 15 mins by stopped-flow CO2 hydration method
Carbonic anhydrase 3 = Carbonic anhydrase 3 (Homo sapiens, UniProt P07451)
Carbonic anhydrase 3, sequence (P07451 whole entry): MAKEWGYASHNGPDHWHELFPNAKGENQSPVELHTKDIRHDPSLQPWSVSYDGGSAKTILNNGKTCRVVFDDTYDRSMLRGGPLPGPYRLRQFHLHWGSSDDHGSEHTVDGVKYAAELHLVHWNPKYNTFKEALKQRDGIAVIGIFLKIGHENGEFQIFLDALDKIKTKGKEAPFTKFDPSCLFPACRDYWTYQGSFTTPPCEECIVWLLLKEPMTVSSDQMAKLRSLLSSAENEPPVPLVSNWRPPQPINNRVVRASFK

Carbonic anhydrase 13 = Carbonic anhydrase 13 (Homo sapiens, UniProt Q8N1Q1)
Carbonic anhydrase 13, sequence (Q8N1Q1 whole entry, canonical isoform): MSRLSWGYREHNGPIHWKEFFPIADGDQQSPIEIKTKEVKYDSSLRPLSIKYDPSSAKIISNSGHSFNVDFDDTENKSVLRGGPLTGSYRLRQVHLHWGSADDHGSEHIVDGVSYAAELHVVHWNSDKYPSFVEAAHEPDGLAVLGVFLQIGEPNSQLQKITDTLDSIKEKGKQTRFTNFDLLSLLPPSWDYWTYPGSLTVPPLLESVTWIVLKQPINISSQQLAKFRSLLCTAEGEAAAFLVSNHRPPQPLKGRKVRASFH

Carbonic anhydrase 2 = Carbonic anhydrase 2 (Homo sapiens, UniProt P00918); experiment: Inhibition of human CA2 cytosolic isoform preincubated for 15 mins by stopped-flow CO2 hydration method
Carbonic anhydrase 12 = Carbonic anhydrase 12 (Homo sapiens, UniProt O43570)
Carbonic anhydrase 12, sequence (O43570 whole entry): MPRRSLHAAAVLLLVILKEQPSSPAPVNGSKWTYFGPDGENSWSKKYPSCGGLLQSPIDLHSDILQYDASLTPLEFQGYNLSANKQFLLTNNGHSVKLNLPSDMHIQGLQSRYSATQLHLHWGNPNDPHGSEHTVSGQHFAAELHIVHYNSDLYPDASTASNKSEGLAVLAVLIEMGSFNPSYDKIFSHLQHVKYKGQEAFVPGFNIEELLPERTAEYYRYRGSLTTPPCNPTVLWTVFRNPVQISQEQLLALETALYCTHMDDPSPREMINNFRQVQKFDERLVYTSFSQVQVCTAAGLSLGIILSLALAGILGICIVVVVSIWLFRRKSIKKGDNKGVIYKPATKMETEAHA

Carbonic anhydrase 9 = Carbonic anhydrase 9 (Homo sapiens, UniProt Q16790)
Carbonic anhydrase 1 = Carbonic anhydrase 1 (Homo sapiens, UniProt P00915)
Carbonic anhydrase 1, sequence (P00915 whole entry): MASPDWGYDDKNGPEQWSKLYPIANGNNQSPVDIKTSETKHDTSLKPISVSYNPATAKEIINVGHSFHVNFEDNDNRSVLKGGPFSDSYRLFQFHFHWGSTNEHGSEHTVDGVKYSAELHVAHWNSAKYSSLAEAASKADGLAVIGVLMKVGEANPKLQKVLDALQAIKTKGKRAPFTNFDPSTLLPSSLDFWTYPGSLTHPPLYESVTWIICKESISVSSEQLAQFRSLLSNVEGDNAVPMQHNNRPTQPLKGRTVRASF

Carbonic anhydrase 7, sequence (P43166 whole entry): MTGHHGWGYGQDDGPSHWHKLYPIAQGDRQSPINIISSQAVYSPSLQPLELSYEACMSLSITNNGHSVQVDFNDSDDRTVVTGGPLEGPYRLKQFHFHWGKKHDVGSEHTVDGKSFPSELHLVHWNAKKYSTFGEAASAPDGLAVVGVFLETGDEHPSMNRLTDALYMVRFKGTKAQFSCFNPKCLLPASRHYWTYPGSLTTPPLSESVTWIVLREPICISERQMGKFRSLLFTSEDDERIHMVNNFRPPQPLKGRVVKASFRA

| Ki (Carbonic anhydrase 7) [µM] | Ki (Carbonic anhydrase 3) [µM] | Ki (Carbonic anhydrase 2) [µM] | Ki (Carbonic anhydrase 12) [µM] | Ki (Carbonic anhydrase 9) [µM] | Ki (Carbonic anhydrase 1) [µM] | Structure (SMILES) | Ki (Carbonic anhydrase 13) [µM] |
| --- | --- | --- | --- | --- | --- | --- | --- |
| 0.0064 | > 100 |  |  |  |  | Cc1ccc(S(=O)(=O)NC(=O)Nc2ccc(S(N)(=O)=O)cc2)cc1 |  |
| 0.03 | > 100 |  |  |  |  | Cc1ccc(S(=O)(=O)NC(=O)Nc2ccc(S(N)(=O)=O)nc2)cc1 |  |
| 0.135 | > 100 | 0.253 | 0.114 | 0.279 | 24.7 | Nc1ccc(S(N)(=O)=O)nc1 |  |

| Structure (SMILES) | Ki (Carbonic anhydrase 7) [µM] | Ki (Carbonic anhydrase 3) [µM] | Ki (Carbonic anhydrase 2) [µM] | Ki (Carbonic anhydrase 12) [µM] | Ki (Carbonic anhydrase 9) [µM] | Ki (Carbonic anhydrase 1) [µM] | Ki (Carbonic anhydrase 13) [µM] |
| --- | --- | --- | --- | --- | --- | --- | --- |
| Nc1ccc(S(N)(=O)=O)cc1 [SULFANILAMIDE] |  | > 100 |  |  |  |  | 0.035 |
